Experimental data published in patent US10813926B2, “Morphinan compounds” (Concert Pharmaceuticals, Inc., priority 2008, dated 2020).
Counter-ions that a name gives are not always drawn.

Key:
Human CYP2D6 SUPERSOMES = molecular target: T1, Human CYP2D6 SUPERSOMES (Homo sapiens, UniProt P10635); assay: Metabolic stability in CYP2D6 SUPERSOMES; type: in vitro ADME; settings: 50 pmol/mL CYP2D6 SUPERSOMES, 1 μM test compound, 2 mM NADPH, 37° C., 0-30 minutes, triplicate
T1 construct: purchased GenTest (Woburn, Mass., USA)
Experimental: (§1) Human CYP2D6 SUPERSOMES™ were purchased from GenTest (Woburn, Mass., USA). 7.5 mM stock solutions of test compounds (Compounds 100, 102, 104, 106, dextromethorphan, a deuterated analog of dextromethorphan wherein each methyl group was replaced with CD3 (“d6-dextromethorphan”, chemical name (+)-3-d3-methoxy-17-d3-methyl-(9α,13α,14α)-morphinan, also referred to as Compound 101 in U.S. Ser. No. 12/112,936, and as “Test Compound” in FIG. 1 and Table 2 below), the ethyl ether analog of dextromethorphan (“dextroethorphan”) or the isopropyl ether analog of dextromethorphan (“dextroisoproporphan”)) were prepared in DMSO. The 7.5 mM stock solutions were diluted to 50 μM in acetonitrile (ACN). The 1000 pmol/mL CYP2D6 supersomes were diluted to 62.5 pmol/mL in 0.1 M potassium phosphate buffer, pH 7.4, containing 3 mM MgCl2. The diluted SUPERSOMES™ were added to wells of a 96-well deep-well polypropylene plate in triplicate. 10 μL of the 50 μM test compound was added to the supersomes and the mixture was pre-warmed for 10 minutes. Reactions were initiated by addition of pre-warmed NADPH solution. The final reaction volume was 0.5 mL and contained 50 pmol/mL CYP2D6 SUPERSOMES™, 1 μM test compound, and 2 mM NADPH in 0.1 M potassium phosphate buffer, pH 7.4, and 3 mM MgCl2. The reaction mixtures were incubated at 37° C. and 50 μL aliquots were removed at 0, 5, 10, 20, and 30 minutes and added to shallow-well 96-well plates which contained 50 μL of ice-cold ACN with internal standard to stop the reactions. The plates were stored at 4° C. for 20 minutes after which 100 μL of water was added to the wells of the plate before centrifugation to pellet precipitated proteins. Supernatants were transferred to another 96-well plate and analyzed for amounts of parent remaining by LC-MS/MS using an Applied Bio-systems API 4000 mass spectrometer.
(§2) The in vitro half-life (t1/2) for each of the test compounds was calculated from the slopes of the linear regression of % parent remaining (ln) vs incubation time relationship: in vitro t1/2=0.693/k, where k=−[slope of linear regression of % parent remaining(ln) vs incubation time]. Data analysis was performed using Microsoft Excel Software.

[1] = Metabolic stability using human liver microsomes; type: in vitro ADME; settings: for t1/2 ± SD, calculated half-life in human liver microsomes / half-life at 1 μM: 1.0 mg/mL human liver microsomes, 1 μM test compound, 2 mM NADPH, 37° C., triplicate; for half-life at 1 μM: pH 7.4, read-out: t1/2 ± SD, calculated half-life in human liver microsomes
Experimental: Human liver microsomes (20 mg/mL) were obtained from Xenotech, LLC (Lenexa, Kans.). β-nicotinamide adenine dinucleotide phosphate, reduced form (NADPH), magnesium chloride (MgCl2), and dimethyl sulfoxide (DMSO) were purchased from Sigma-Aldrich.
7.5 mM stock solutions of test compounds were prepared in DMSO. The 7.5 mM stock solutions were diluted to 50 μM in acetonitrile (ACN). The 20 mg/mL human liver microsomes were diluted to 1.25 mg/mL (1 mg/mL final) in 0.1 M potassium phosphate buffer, pH 7.4, containing 3 mM MgCl2. The diluted microsomes (375 μL) were added to wells of a 96-well polypropylene plate in triplicate. 10 μL of the 50 μM test compound was added to the microsomes and the mixture was pre-warmed for 10 minutes. Reactions were initiated by addition of 125 μL of pre-warmed NADPH solution. The final reaction volume was 0.5 mL and contained 1.0 mg/mL human liver microsomes, 1 μM test compound, and 2 mM NADPH in 0.1 M potassium phosphate buffer, pH 7.4, and 3 mM MgCl2. The reaction mixtures were incubated at 37° C., and 50 μL aliquots were removed at 0, 5, 10, 20, and 30 minutes and added to shallow 96-well plates which contained 50 μL of ice-cold ACN with internal standard to stop the reactions. The plates were stored at 4° C. for 20 minutes after which 100 μL of water was added to the wells of the plate before centrifugation to pellet precipitated proteins. Supernatants were transferred to another 96-well plate and analyzed for amounts of parent remaining by LC-MS/MS using an Applied Bio-systems API 4000 mass spectrometer.
7-ethoxy coumarin was used as a positive control.
The in vitro t1/2s for test compounds were calculated from the slopes of the linear regression of % parent remaining (ln) vs incubation time relationship:
in vitro t1/2=0.693/k, where k=−[slope of linear regression of % parent remaining(ln) vs incubation time]
Data Analysis was Performed Using Microsoft Excel Software.

CYP2D6 = molecular target: T2, CYP2D6 (Homo sapiens, UniProt P10635); assay: Metabolic stability in CYP2D6 SUPERSOMES; type: in vitro ADME; settings: human, recombinant human CYP2D6 SUPERSOMES, pH 7.4; 50 pmol/mL CYP2D6 SUPERSOMES, 1 μM test compound, 2 mM NADPH, 37° C., 0-30 minutes, triplicate; read-out: t1/2 ± SD, calculated half-life in SUPERSOMES
T2 construct: purchased GenTest (Woburn, Mass., USA)
Experimental: as §1, §2

[2] = healthy human males; cited from earlier work
[3] = Table 3, vs dextroethorphan or dextroisoproporphan

T2 sequence (P10635 whole entry): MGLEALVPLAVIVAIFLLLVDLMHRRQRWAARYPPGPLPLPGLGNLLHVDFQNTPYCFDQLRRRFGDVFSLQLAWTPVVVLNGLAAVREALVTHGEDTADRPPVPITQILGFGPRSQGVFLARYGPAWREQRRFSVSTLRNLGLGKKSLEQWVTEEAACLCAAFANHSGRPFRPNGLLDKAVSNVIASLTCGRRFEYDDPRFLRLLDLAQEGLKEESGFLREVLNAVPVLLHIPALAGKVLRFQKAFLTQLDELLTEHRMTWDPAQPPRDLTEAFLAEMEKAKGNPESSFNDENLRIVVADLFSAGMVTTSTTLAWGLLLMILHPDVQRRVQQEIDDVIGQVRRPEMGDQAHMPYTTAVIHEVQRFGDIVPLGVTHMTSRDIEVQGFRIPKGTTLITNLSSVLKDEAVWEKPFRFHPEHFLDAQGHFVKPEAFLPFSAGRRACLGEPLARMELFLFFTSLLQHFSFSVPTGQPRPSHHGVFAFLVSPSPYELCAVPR
T1 sequence (P10635 whole entry): as above

With [2H]C([2H])([2H])N1CC[C@@]23CCCC[C@@H]2[C@@H]1Cc1ccc(OC([2H])([2H])C([2H])([2H])[2H])cc13 [Compound 100, (+)-3-(Ethoxy-d5)-17-(methyl-d3)-(9α,13α,14α)-morphinan hydrochloride] the “t1/2 ± SD, calculated half-life in SUPERSOMES” value (Human CYP2D6 SUPERSOMES) was 51.3 ± 3.7 min, the “t1/2 ± SD, calculated half-life in human liver microsomes” value ([1]; Table 3) was 59.2 ± 1.7 min and the “Change over non-deuterated compound (half-life)” value [1, 3] was 109%.

For [2H]C([2H])([2H])N1CC[C@@]23CCCC[C@@H]2[C@@H]1Cc1ccc(OC([2H])(C([2H])([2H])[2H])C([2H])([2H])[2H])cc13 [Compound 102, (+)-3-(Isopropoxy-d7)-17-(methyl-d3)-(9α,13α,14α)-morphinan], the half-life at 1 μM (CYP2D6) was 39 ± 1.9 min, the “Change over non-deuterated compound (half-life)” value [1, 3] was 69% and the half-life at 1 μM ([1]; Table 3) was 61 ± 0.4 min.

For [2H]C([2H])([2H])C([2H])([2H])Oc1ccc2c(c1)[C@]13CCCC[C@@H]1[C@H](C2)N(C)CC3 [Compound 104, (+)-3-(Ethoxy-d5)-17-methyl-(9α,13α,14α)-morphinan hydrochloride], the “t1/2 ± SD, calculated half-life in SUPERSOMES” value (Human CYP2D6 SUPERSOMES) was 49.1 ± 4.1 min, the “t1/2 ± SD, calculated half-life in human liver microsomes” value ([1]; Table 3) was 59.1 ± 2.2 min and the “Change over non-deuterated compound (half-life)” value [1, 3] was 109%.

With [2H]C([2H])([2H])C([2H])(Oc1ccc2c(c1)[C@]13CCCC[C@@H]1[C@H](C2)N(C)CC3)C([2H])([2H])[2H] [Compound 106, (+)-3-(Isopropoxy-d7)-17-methyl-(9α,13α,14α)-morphinan] the half-life at 1 μM (CYP2D6) was 36 ± 2.8 min, the “Change over non-deuterated compound (half-life)” value [1, 3] was 91% and the half-life at 1 μM ([1]; Table 3) was 68.8 ± 0.9 min.

With [2H]C([2H])([2H])c1ccc2c(c1)[C@]13CCCC[C@@H]1[C@H](C2)N(C)CC3 [Compound 108, (+)-3-(Methyl-d3)-17-methyl-(9α,13α,14α)-morphinan] the “Change over non-deuterated compound (half-life)” value ([1]; Table 4, vs dimemorfan) was 21%.

With [2H]C([2H])([2H])c1ccc2c(c1)[C@]13CCCC[C@@H]1[C@H](C2)N(C([2H])([2H])[2H])CC3 [Compound 110, (+)-3-(Methyl-d3)-17-(methyl-d3)-(9α,13α,14α)-morphinan] the “Change over non-deuterated compound (half-life)” value ([1]; Table 4, vs dimemorfan) was 37%.

In the case of CCOc1ccc2c(c1)[C@@]13CCCC[C@H]1[C@@H](C2)N(C)CC3 [Dextroethorphan, (+)-3-ethoxy-17-methylmorphinan, reference compound], the “t1/2 ± SD, calculated half-life in SUPERSOMES” value (Human CYP2D6 SUPERSOMES) is reported as 10.3 ± 2.1 min and the “t1/2 ± SD, calculated half-life in human liver microsomes” value ([1]; Table 3) is reported as 28.3 ± 0.6 min.

With CC(C)Oc1ccc2c(c1)[C@@]13CCCC[C@H]1[C@@H](C2)N(C)CC3 [Dextroisoproporphan, (+)-3-(2-propoxy)-17-methyl-morphinan, reference compound] the half-life at 1 μM (CYP2D6) was 21.7 ± 1.6 min and the half-life at 1 μM ([1]; Table 3) was 36.1 ± 1.6 min.

With COc1ccc2c(c1)[C@]13CCCC[C@@H]1[C@H](C2)N(C)CC3 [Dextromethorphan, (+)-3-methoxy-17-methyl-(9α,13α,14α)-morphinan, reference compound] the “t1/2 ± SD, calculated half-life in SUPERSOMES” value (Human CYP2D6 SUPERSOMES) was 1.7 ± 0.3 min.

For Cc1ccc2c(c1)[C@]13CCCC[C@@H]1[C@H](C2)N(C)CC3 [Dimemorfan, (+)-(9α,13α,14α)-3,17-dimethylmorphinan], the “fraction of a dose metabolized” value [2] is listed as “Greater than 98%”.

With [2H]C([2H])([2H])Oc1ccc2c(c1)[C@]13CCCC[C@@H]1[C@H](C2)N(C([2H])([2H])[2H])CC3 [Test Compound, (+)-3-d3-methoxy-17-d3-methyl-(9α,13α,14α)-morphinan, reference compound] the “t1/2 ± SD, calculated half-life in SUPERSOMES” value (Human CYP2D6 SUPERSOMES) was 5.6 ± 1.5 min.
